Measurements reported in PubChem BioAssay (NCI).
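Assay format: 96-well plates, 48-hour exposure. TGI: total growth inhibition.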

Experiments:
Assay in all cases: growth of human tumour cells (NCI), 48 h
786-0 renal = system: 786-0 renal
A498 renal = system: A498 renal
A549 NSCLC = system: A549 NSCLC
ACHN renal = system: ACHN renal
BT-549 breast = system: BT-549 breast
CAKI-1 renal = system: CAKI-1 renal
CCRF-CEM leukemia = system: CCRF-CEM leukemia
COLO 205 colon = system: COLO 205 colon
DU-145 prostate = system: DU-145 prostate
EKVX NSCLC = system: EKVX NSCLC
HCC-2998 colon = system: HCC-2998 colon
HCT-116 colon = system: HCT-116 colon
HCT-15 colon = system: HCT-15 colon
HL-60(TB) leukemia = system: HL-60(TB) leukemia
HOP-62 NSCLC = system: HOP-62 NSCLC
HOP-92 NSCLC = system: HOP-92 NSCLC
HS 578T breast = system: HS 578T breast
HT29 colon = system: HT29 colon
IGROV1 ovarian = system: IGROV1 ovarian
K-562 leukemia = system: K-562 leukemia
KM12 colon = system: KM12 colon
LOX IMVI melanoma = system: LOX IMVI melanoma
M14 melanoma = system: M14 melanoma
MALME-3M melanoma = system: MALME-3M melanoma
MCF7 breast = system: MCF7 breast
MDA-MB-231 breast = system: MDA-MB-231 breast
MDA-MB-435 = system: MDA-MB-435
MDA-N = system: MDA-N
MOLT-4 leukemia = system: MOLT-4 leukemia
NCI-H226 lung = system: NCI-H226 lung
NCI-H23 lung = system: NCI-H23 lung
NCI-H460 lung = system: NCI-H460 lung
NCI-H522 lung = system: NCI-H522 lung
NCI/ADR-RES ovarian = system: NCI/ADR-RES ovarian
OVCAR-3 ovarian = system: OVCAR-3 ovarian
OVCAR-4 ovarian = system: OVCAR-4 ovarian
OVCAR-5 ovarian = system: OVCAR-5 ovarian
OVCAR-8 ovarian = system: OVCAR-8 ovarian
PC-3 prostate = system: PC-3 prostate
RPMI-8226 leukemia = system: RPMI-8226 leukemia
RXF 393 renal = system: RXF 393 renal
SF-268 CNS = system: SF-268 CNS
SF-295 CNS = system: SF-295 CNS
SF-539 CNS = system: SF-539 CNS
SK-MEL-2 melanoma = system: SK-MEL-2 melanoma
SK-MEL-28 melanoma = system: SK-MEL-28 melanoma
SK-MEL-5 melanoma = system: SK-MEL-5 melanoma
SK-OV-3 ovarian = system: SK-OV-3 ovarian
SN12C renal = system: SN12C renal
SNB-19 CNS = system: SNB-19 CNS
SNB-75 CNS = system: SNB-75 CNS
SR leukemia = system: SR leukemia
SW-620 colon = system: SW-620 colon
T-47D breast = system: T-47D breast
TK-10 renal = system: TK-10 renal
U251 CNS = system: U251 CNS
UACC-257 melanoma = system: UACC-257 melanoma
UACC-62 melanoma = system: UACC-62 melanoma
UO-31 renal = system: UO-31 renal

SMILES: O=C(O)c1ccc(NCc2nc3cc4ccccc4cc3[nH]2)cc1
- TGI (786-0 renal): > 100 µM
- TGI (A498 renal): > 100 µM
- TGI (A549 NSCLC): > 100 µM
- TGI (ACHN renal): > 100 µM
- TGI (BT-549 breast): > 100 µM
- TGI (CAKI-1 renal): > 100 µM
- TGI (CCRF-CEM leukemia): > 100 µM
- TGI (COLO 205 colon): > 100 µM
- TGI (DU-145 prostate): > 100 µM
- TGI (EKVX NSCLC): > 100 µM
- TGI (HCC-2998 colon): > 100 µM
- TGI (HCT-116 colon): > 100 µM
- TGI (HCT-15 colon): > 100 µM
- TGI (HL-60(TB) leukemia): > 54.8 µM
- TGI (HOP-62 NSCLC): > 100 µM
- TGI (HOP-92 NSCLC): > 100 µM
- TGI (HS 578T breast): > 100 µM
- TGI (HT29 colon): > 100 µM
- TGI (IGROV1 ovarian): > 100 µM
- TGI (K-562 leukemia): > 100 µM
- TGI (KM12 colon): > 100 µM
- TGI (LOX IMVI melanoma): > 100 µM
- TGI (M14 melanoma): > 100 µM
- TGI (MALME-3M melanoma): 0.237 µM
- TGI (MCF7 breast): 46.9 µM
- TGI (MDA-MB-231 breast): > 100 µM
- TGI (MDA-MB-435): > 100 µM
- TGI (MDA-N): > 100 µM
- TGI (MOLT-4 leukemia): > 100 µM
- TGI (NCI-H226 lung): > 100 µM
- TGI (NCI-H23 lung): > 100 µM
- TGI (NCI-H460 lung): > 100 µM
- TGI (NCI-H522 lung): > 100 µM
- TGI (NCI/ADR-RES ovarian): > 100 µM
- TGI (OVCAR-3 ovarian): > 100 µM
- TGI (OVCAR-4 ovarian): > 100 µM
- TGI (OVCAR-5 ovarian): > 100 µM
- TGI (OVCAR-8 ovarian): > 100 µM
- TGI (PC-3 prostate): > 100 µM
- TGI (RPMI-8226 leukemia): > 100 µM
- TGI (RXF 393 renal): > 100 µM
- TGI (SF-268 CNS): > 100 µM
- TGI (SF-295 CNS): > 100 µM
- TGI (SF-539 CNS): > 100 µM
- TGI (SK-MEL-2 melanoma): > 86.3 µM
- TGI (SK-MEL-28 melanoma): > 85.2 µM
- TGI (SK-MEL-5 melanoma): > 72.7 µM
- TGI (SK-OV-3 ovarian): > 100 µM
- TGI (SN12C renal): > 100 µM
- TGI (SNB-19 CNS): > 100 µM
- TGI (SNB-75 CNS): > 100 µM
- TGI (SR leukemia): > 100 µM
- TGI (SW-620 colon): > 100 µM
- TGI (T-47D breast): > 100 µM
- TGI (TK-10 renal): > 100 µM
- TGI (U251 CNS): > 100 µM
- TGI (UACC-257 melanoma): 25.9 µM
- TGI (UACC-62 melanoma): > 100 µM
- TGI (UO-31 renal): > 100 µM
